No end group written: not given here.
Assays:
Experiment in all cases: biochemical
Format in all cases: binding
HLA-A11 (A*1101) = HLA-A11 (A*1101) (Homo sapiens, UniProt P04439, A114D/D185E/E176A/F33Y/L180Q/S129P/T187R)
A31 (A*3101) = A31 (A*3101) (Homo sapiens, UniProt P04439, A270S/D185E/E176V/E277Q/F33T/G231S/G80R/H175R/I121M/I218V/I322F/K168Q/L300P/L318F/M331R/P217A/Q94H/R138Q/T323A/T345S/T97I/V358M)
A*3301 = A*3301 (Homo sapiens, UniProt P04439, A270S/D185E/E176V/E277Q/E87N/F33T/G231S/H175R/I121M/I218V/I322F/K168Q/K210R/L300P/L318F/M331R/P217A/Q86R/Q94H/R138Q/T323A/T345S/T97I/V358M/Y195H)
A*6801 = A*6801 (Homo sapiens, UniProt P04439, A269V/D185E/E176V/E277Q/E87N/F33Y/G231S/I121M/I166T/I218V/L180W/L300P/L318F/N151K/P208A/P217A/Q86R/R169H/T345S)

MTLESILRR [Peptide 9012.0215]
IC50 (HLA-A11 (A*1101)): 0.014 µM
IC50 (A31 (A*3101)): 0.243 µM
IC50 (A*3301): 0.094 µM
IC50 (A*6801): 0.015 µM

VQFKSECEK [Peptide 88.0419]
IC50 (HLA-A11 (A*1101)): 0.02 µM
IC50 (A31 (A*3101)): 2.68 µM
IC50 (A*3301): 4.77 µM
IC50 (A*6801): > 20 µM

GQVNCKGIYY [Peptide 88.0209]
IC50 (HLA-A11 (A*1101)): 0.168 µM
IC50 (A31 (A*3101)): 2.76 µM
IC50 (A*3301): > 20 µM
IC50 (A*6801): > 20 µM

VTVYDGVPVWK [Peptide 1539.09]
IC50 (HLA-A11 (A*1101)): 0.019 µM
IC50 (A31 (A*3101)): 18.3 µM
IC50 (A*3301): > 20 µM
IC50 (A*6801): 0.362 µM

MSFLTALKR [Peptide 1587.11]
IC50 (HLA-A11 (A*1101)): 0.026 µM
IC50 (A31 (A*3101)): 0.049 µM
IC50 (A*6801): 0.0024 µM

KVCLRLLSK [Peptide 78.0302]
IC50 (HLA-A11 (A*1101)): 0.23 µM
IC50 (A31 (A*3101)): 0.525 µM
IC50 (A*3301): > 20 µM
IC50 (A*6801): > 20 µM

ALQGLAQSR [Peptide 88.0398]
IC50 (HLA-A11 (A*1101)): 2.76 µM
IC50 (A31 (A*3101)): 0.311 µM
IC50 (A*3301): > 20 µM
IC50 (A*6801): 11.3 µM

SVFQNLQVIK [Peptide 9012.0231]
IC50 (HLA-A11 (A*1101)): 0.011 µM
IC50 (A31 (A*3101)): 3.56 µM
IC50 (A*3301): 6.22 µM
IC50 (A*6801): 0.016 µM

QVNCKGIYY [Peptide 88.0408]
IC50 (HLA-A11 (A*1101)): 1.62 µM
IC50 (A31 (A*3101)): > 20 µM
IC50 (A*3301): > 20 µM
IC50 (A*6801): > 20 µM

MLIEPPKLR [Peptide 88.0366]
IC50 (HLA-A11 (A*1101)): 2.88 µM
IC50 (A31 (A*3101)): 3.16 µM
IC50 (A*3301): 0.15 µM
IC50 (A*6801): 0.012 µM

KTVRLIKFLY [Peptide 9017.0197]
IC50 (HLA-A11 (A*1101)): 0.235 µM
IC50 (A31 (A*3101)): 1.29 µM
IC50 (A*3301): 6.65 µM
IC50 (A*6801): 12 µM

WFYVQAIVDK [Peptide 88.0140]
IC50 (HLA-A11 (A*1101)): 12.9 µM
IC50 (A31 (A*3101)): > 20 µM
IC50 (A*3301): > 20 µM
IC50 (A*6801): 19.5 µM

KQLCDLLIR [Peptide 1513.14]
IC50 (HLA-A11 (A*1101)): 1.68 µM
IC50 (A31 (A*3101)): 0.024 µM
IC50 (A*3301): 6.9 µM
IC50 (A*6801): > 20 µM

KQIVMFLRY [Peptide 88.0330]
IC50 (HLA-A11 (A*1101)): 0.097 µM
IC50 (A31 (A*3101)): 4.39 µM
IC50 (A*3301): 6.4 µM
IC50 (A*6801): 2.26 µM

TFPNPFPFDK [Peptide 88.0162]
IC50 (HLA-A11 (A*1101)): 0.221 µM
IC50 (A31 (A*3101)): 2.26 µM
IC50 (A*3301): 1.83 µM
IC50 (A*6801): 1.11 µM

DFISFLSYFK [Peptide 88.0188]
IC50 (HLA-A11 (A*1101)): 0.03 µM
IC50 (A31 (A*3101)): 2.63 µM
IC50 (A*3301): 0.0057 µM
IC50 (A*6801): 0.0015 µM

TLTYISTSQR [Peptide 88.0211]
IC50 (HLA-A11 (A*1101)): 8.27 µM
IC50 (A31 (A*3101)): 0.688 µM
IC50 (A*3301): 1.01 µM
IC50 (A*6801): 0.056 µM

AIRKAILGHR [Peptide 9017.0223]
IC50 (HLA-A11 (A*1101)): 12.6 µM
IC50 (A31 (A*3101)): 0.025 µM
IC50 (A*3301): 1.52 µM
IC50 (A*6801): 7.73 µM

TLSAELPK [Peptide 1556.24]
IC50 (HLA-A11 (A*1101)): 0.102 µM
IC50 (A31 (A*3101)): > 20 µM
IC50 (A*3301): > 20 µM
IC50 (A*6801): > 20 µM

IVVSAELPK [Peptide 1556.19]
IC50 (HLA-A11 (A*1101)): 0.093 µM
IC50 (A31 (A*3101)): > 20 µM
IC50 (A*3301): > 20 µM
IC50 (A*6801): 0.218 µM

GQVDYYGLYY [Peptide 1589.02]
IC50 (HLA-A11 (A*1101)): 0.053 µM
IC50 (A31 (A*3101)): 5.4 µM
IC50 (A*3301): > 20 µM
IC50 (A*6801): > 20 µM

RVHSSHLKSKK [Peptide 1556.75]
IC50 (HLA-A11 (A*1101)): 0.02 µM
IC50 (A31 (A*3101)): 0.3 µM
IC50 (A*3301): 12 µM
IC50 (A*6801): 2.15 µM

GILRQRRAR [Peptide 9017.0114]
IC50 (HLA-A11 (A*1101)): 0.672 µM
IC50 (A31 (A*3101)): 0.177 µM
IC50 (A*3301): 3.19 µM
IC50 (A*6801): 1.48 µM

ESKKKVESK [Peptide 9017.0082]
IC50 (HLA-A11 (A*1101)): > 20 µM
IC50 (A31 (A*3101)): > 20 µM
IC50 (A*3301): > 20 µM
IC50 (A*6801): 0.25 µM

EQMLIQPPK [Peptide 88.0378]
IC50 (HLA-A11 (A*1101)): 0.079 µM
IC50 (A31 (A*3101)): > 20 µM
IC50 (A*3301): 0.831 µM
IC50 (A*6801): 0.732 µM

KLTEDRWNK [Peptide 9017.0108]
IC50 (HLA-A11 (A*1101)): 0.042 µM
IC50 (A31 (A*3101)): 0.055 µM
IC50 (A*3301): > 20 µM
IC50 (A*6801): > 20 µM

RQLFLNTVK [Peptide 1589.44]
IC50 (HLA-A11 (A*1101)): 0.039 µM
IC50 (A31 (A*3101)): 0.087 µM
IC50 (A*3301): > 20 µM
IC50 (A*6801): 16.2 µM

YSVYGTTLEK [Peptide 78.0054]
IC50 (HLA-A11 (A*1101)): 0.1 µM
IC50 (A31 (A*3101)): > 20 µM
IC50 (A*3301): > 20 µM
IC50 (A*6801): 0.036 µM

GTTLEQQYNK [Peptide 78.0044]
IC50 (HLA-A11 (A*1101)): 0.069 µM
IC50 (A31 (A*3101)): > 20 µM
IC50 (A*3301): > 20 µM
IC50 (A*6801): 3.94 µM
